The record followed here is ChEMBL document CHEMBL5728742, “Pyrrolo-pyridine derivative compound, method for preparing same, and pharmaceutical composition containing same as active ingredient for prevention or treatment of protein kinase-related diseases” (2021).

The test addresses Dual specificity tyrosine-phosphorylation-regulated kinase 1A (Homo sapiens, UniProt Q13627). Nature of the test: Then, DYRK1A kinase was added thereto, followed by mixing well. Each compound of Examples was added thereto by using acoustic technology (Echo550; nanoliter range). […] After reacting at room temperature for 2 hours, spotting was performed on P81 exchange paper. Upon completion of the reaction, kinase activity was detected using a filter-binding method.

A word on the IC50: it is the concentration that inhibits the measured activity by half. Lower therefore signals greater potency in that assay.

With `CCNc1cc(Nc2cc(F)c(C(=O)NC3CCN(C)CC3)cc2OC)nc2[nH]cc(C(F)(F)F)c12`, the IC50 is more than 100 nM.
